Test results taken from PubChem BioAssay AID342 (DTP/NCI, 2004).
Where “and” joins values, the source holds several entries; their conditions need not be identical. Equal values may be shown once.

System: Swiss mice, Sarcoma 180 sc, mean tumor weight T/C
Test: NCI In Vivo Anticancer Drug Screen. Data for tumor model Sarcoma 180 (subcutaneous) in Swiss mice
Settings: endpoint: mean tumor weight, higher = larger tumour
Outline: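 Mice bearing transplanted tumors were treated with compound, and survival or tumor size was measured. Values are expressed as the treated-group measurement (T) divided by the vehicle-treated control measurement (C).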

[1] = dose: 90.0 mg/kg/injection, schedule: Q01DX007 (ip), vehicle: carboxymethylcellulose (CMC)
[2] = dose: 50.0 mg/kg/injection, schedule: Q#A X014 (ip), vehicle: saline
[3] = dose: 50.0 mg/kg/injection, schedule: Q#A X014 (sc), vehicle: steriod suspending solution

For `O=C(O)c1c(-c2ccccc2)[nH]c2cc(Cl)ccc2c1=O`, the T/C (dose: 55.5 mg/kg/injection, schedule: Q01DX007 (ip), vehicle: carboxymethylcellulose (CMC)) was 87 % of control, the T/C (dose: 83.0 mg/kg/injection, schedule: Q01DX007 (ip), vehicle: carboxymethylcellulose (CMC)) was 51 % of control and the T/C (dose: 125.0 mg/kg/injection, schedule: Q01DX007 (ip), vehicle: carboxymethylcellulose (CMC)) was 25 % of control.

With `CCCCOC(=O)C1(N)CCCC1` the T/C (dose: 60.0 mg/kg/injection, schedule: Q01DX007 (ip), vehicle: carboxymethylcellulose (CMC)) was 72 % of control, the T/C [1] was 72 % of control and the T/C (dose: 135.0 mg/kg/injection, schedule: Q01DX007 (ip), vehicle: carboxymethylcellulose (CMC)) was 33 % of control. For the same compound, the T/C (dose: 148.0 mg/kg/injection, schedule: Q01DX007 (ip), vehicle: saline) was 54 % of control, the T/C (dose: 200.0 mg/kg/injection, schedule: Q01DX007 (ip), vehicle: carboxymethylcellulose (CMC)) was 12 % of control and the T/C (dose: 202.0 mg/kg/injection, schedule: Q01DX007 (ip), vehicle: carboxymethylcellulose (CMC)) was 33 % of control. For the same compound, the T/C (dose: 225.0 mg/kg/injection, schedule: Q01DX007 (ip), vehicle: saline) was 33 % of control and the T/C (dose: 336.0 mg/kg/injection, schedule: Q01DX007 (ip), vehicle: saline) was 11 % of control.

With `CCCCCCCCCCCCCCCCCC1=NCCN1CCN` the T/C (dose: 22.0 mg/kg/injection, schedule: Q#A X014 (ip), vehicle: saline) was 74 % of control and 84 % of control and the T/C [2] was 33 % of control.

In the case of `CO[C@H]1CC[C@@]2(C)C(=CC[C@H]3[C@@H]4C[C@H](O)[C@H](OC)[C@@]4(C)CC[C@@H]32)C1`, the T/C (dose: 0.25 mg/kg/injection, schedule: Q#A X014 (sc), vehicle: steriod suspending solution) is reported as 94 % of control, the T/C (dose: 2.5 mg/kg/injection, schedule: Q#A X014 (sc), vehicle: steriod suspending solution) is reported as 85 % of control and the T/C (dose: 10.0 mg/kg/injection, schedule: Q#A X014 (sc), vehicle: steriod suspending solution) is reported as 122 % of control. For the same compound, the T/C [3] was 97 % of control.

With `CN(C)c1nc(N(C)C)nc(N(C)C)n1` the T/C (dose: 7.34 mg/kg/injection, schedule: Q#A X014 (ip), vehicle: carboxymethylcellulose (CMC)) was 86 % of control, the T/C (dose: 14.67 mg/kg/injection, schedule: Q#A X014 (ip), vehicle: carboxymethylcellulose (CMC)) was 90 % of control and the T/C (dose: 22.5 mg/kg/injection, schedule: Q01DX007 (ip), vehicle: carboxymethylcellulose (CMC)) was 117 % of control. For the same compound, the T/C (dose: 23.45 mg/kg/injection, schedule: Q#A X014 (ip), vehicle: other) was 91 % of control, the T/C (dose: 25.0 mg/kg/injection, schedule: Q01DX007 (ip), vehicle: methylcellulose (MC)) was 64 % of control and the T/C (dose: 25.0 mg/kg/injection, schedule: Q01DX007 (oral), vehicle: carboxymethylcellulose (CMC)) was 58 % of control. The T/C (dose: 25.0 mg/kg/injection, schedule: Q01DX007 (oral), vehicle: methylcellulose (MC)) was 102 % of control, the T/C (dose: 29.35 mg/kg/injection, schedule: Q#A X014 (ip), vehicle: carboxymethylcellulose (CMC)) was 75 % of control and the T/C (dose: 29.35 mg/kg/injection, schedule: Q#A X014 (ip), vehicle: other) was 80 % of control. The T/C (dose: 31.25 mg/kg/injection, schedule: Q#A X014 (ip), vehicle: carboxymethylcellulose (CMC)) was 53 % of control, the T/C (dose: 39.1 mg/kg/injection, schedule: Q#A X014 (ip), vehicle: other) was 83 % of control and the T/C (dose: 45.0 mg/kg/injection, schedule: Q01DX007 (ip), vehicle: carboxymethylcellulose (CMC)) was 88 % of control. The T/C (dose: 46.9 mg/kg/injection, schedule: Q01DX007 (ip), vehicle: other) was 49 % of control, the T/C (dose: 50.0 mg/kg/injection, schedule: Q01DX007 (ip), vehicle: methylcellulose (MC)) was 61 % of control and the T/C (dose: 50.0 mg/kg/injection, schedule: Q01DX007 (oral), vehicle: carboxymethylcellulose (CMC)) was 87 % of control. The T/C (dose: 50.0 mg/kg/injection, schedule: Q01DX007 (oral), vehicle: methylcellulose (MC)) was 116 % of control, the T/C (dose: 58.7 mg/kg/injection, schedule: Q01DX007 (ip), vehicle: other) was 51 % of control and the T/C (dose: 58.7 mg/kg/injection, schedule: Q#A X014 (ip), vehicle: other) was 77 % of control. The T/C (dose: 62.5 mg/kg/injection, schedule: Q#A X014 (ip), vehicle: carboxymethylcellulose (CMC)) was 26 % of control, the T/C (dose: 78.2 mg/kg/injection, schedule: Q01DX007 (ip), vehicle: other) was 54 % of control and the T/C [1] was 77 % of control. For the same compound, the T/C (dose: 100.0 mg/kg/injection, schedule: Q01DX007 (ip), vehicle: methylcellulose (MC)) was 75 % of control, the T/C (dose: 100.0 mg/kg/injection, schedule: Q01DX007 (oral), vehicle: carboxymethylcellulose (CMC)) was 67 % of control and the T/C (dose: 100.0 mg/kg/injection, schedule: Q01DX007 (oral), vehicle: methylcellulose (MC)) was 108 % of control. For the same compound, the T/C (dose: 117.4 mg/kg/injection, schedule: Q01DX007 (ip), vehicle: other) was 40 % of control, the T/C (dose: 200.0 mg/kg/injection, schedule: Q01DX007 (ip), vehicle: methylcellulose (MC)) was 94 % of control and the T/C (dose: 200.0 mg/kg/injection, schedule: Q01DX007 (oral), vehicle: carboxymethylcellulose (CMC)) was 57 % of control. The T/C (dose: 200.0 mg/kg/injection, schedule: Q01DX007 (oral), vehicle: methylcellulose (MC)) was 114 % of control.

For `CC(=O)OCC(=O)[C@@]1(O)CC[C@H]2[C@@H]3C[C@H](C)C4=CC(=O)CC[C@]4(C)[C@H]3[C@@H](O)C[C@@]21C`, the T/C (dose: 3.0 mg/kg/injection, schedule: Q#A X014 (sc), vehicle: steriod suspending solution) was 64 % of control, the T/C (dose: 6.25 mg/kg/injection, schedule: Q#A X014 (sc), vehicle: steriod suspending solution) was 77 % of control and the T/C (dose: 12.5 mg/kg/injection, schedule: Q01DX007 (sc), vehicle: steriod suspending solution) was 44 % of control. The T/C (dose: 12.5 mg/kg/injection, schedule: Q#A X014 (sc), vehicle: steriod suspending solution) was 48 % of control, the T/C (dose: 25.0 mg/kg/injection, schedule: Q01DX007 (sc), vehicle: steriod suspending solution) was 37 % of control and the T/C (dose: 25.0 mg/kg/injection, schedule: Q#A X014 (sc), vehicle: steriod suspending solution) was 43 % of control. For the same compound, the T/C (dose: 50.0 mg/kg/injection, schedule: Q01DX007 (sc), vehicle: steriod suspending solution) was 32 % of control, the T/C [3] was 28 % of control and the T/C (dose: 100.0 mg/kg/injection, schedule: Q01DX007 (sc), vehicle: steriod suspending solution) was 25 % of control. The T/C (dose: 200.0 mg/kg/injection, schedule: Q01DX007 (sc), vehicle: steriod suspending solution) was 15 % of control.

For `NC(=O)SCC(=O)Nc1ccc2ncccc2c1`, the T/C (dose: 42.0 mg/kg/injection, schedule: Q#A X014 (ip), vehicle: methylcellulose (MC)) was 84 % of control, the T/C (dose: 63.5 mg/kg/injection, schedule: Q#A X014 (ip), vehicle: methylcellulose (MC)) was 76 % of control and the T/C (dose: 93.5 mg/kg/injection, schedule: Q#A X014 (ip), vehicle: methylcellulose (MC)) was 58 % of control. For the same compound, the T/C (dose: 140.0 mg/kg/injection, schedule: Q#A X014 (ip), vehicle: methylcellulose (MC)) was 56 % of control, the T/C (dose: 250.0 mg/kg/injection, schedule: Q01DX007 (ip), vehicle: other) was 87 % of control and the T/C (dose: 500.0 mg/kg/injection, schedule: Q01DX007 (ip), vehicle: other) was 46 % of control.

In the case of `CC(C)OC(=O)C1(N)CCCC1`, the T/C (dose: 33.0 mg/kg/injection, schedule: Q#A X014 (ip), vehicle: saline) is reported as 61 % of control, the T/C [2] is reported as 67 % of control and the T/C (dose: 75.0 mg/kg/injection, schedule: Q#A X014 (ip), vehicle: saline) is reported as 49 % of control. For the same compound, the T/C (dose: 112.5 mg/kg/injection, schedule: Q#A X014 (ip), vehicle: saline) was 20 % of control.

With `c1ccc2c(c1)-c1cccc3c1c-2cc1ccccc13` the T/C (dose: 25.0 mg/kg/injection, schedule: Q01DX007 (ip), vehicle: other) was 53 % of control, the T/C (dose: 36.0 mg/kg/injection, schedule: Q01DX007 (ip), vehicle: other) was 36 % of control and 47 % of control and the T/C (dose: 55.0 mg/kg/injection, schedule: Q01DX007 (ip), vehicle: carboxymethylcellulose (CMC)) was 35 % of control. The T/C (dose: 55.0 mg/kg/injection, schedule: Q01DX007 (ip), vehicle: other) was 57 % of control, the T/C (dose: 82.5 mg/kg/injection, schedule: Q01DX007 (ip), vehicle: other) was 26 % of control and 42 % of control and the T/C (dose: 125.0 mg/kg/injection, schedule: Q01DX007 (ip), vehicle: other) was 14 % of control.

`Nc1nc(Cl)ncc1F` was tested, and the T/C (dose: 25.0 mg/kg/injection, schedule: Q01DX007 (ip), vehicle: saline) was 101 % of control, the T/C (dose: 50.0 mg/kg/injection, schedule: Q01DX007 (ip), vehicle: saline) was 83 % of control and the T/C (dose: 100.0 mg/kg/injection, schedule: Q01DX007 (ip), vehicle: saline) was 92 % of control.

With `NNC(=O)c1ccncc1` the T/C (dose: 7.5 mg/kg/injection, schedule: Q#A X014 (ip), vehicle: carboxymethylcellulose (CMC)) was 112 % of control, the T/C (dose: 15.0 mg/kg/injection, schedule: Q#A X014 (ip), vehicle: carboxymethylcellulose (CMC)) was 105 % of control and the T/C (dose: 30.0 mg/kg/injection, schedule: Q#A X014 (ip), vehicle: carboxymethylcellulose (CMC)) was 101 % of control. For the same compound, the T/C (dose: 60.0 mg/kg/injection, schedule: Q#A X014 (ip), vehicle: carboxymethylcellulose (CMC)) was 74 % of control.
